Columns and labels:
[1] = molecular target: T1, human DP2 receptor (Homo sapiens, UniProt Q9Y5Y4); test: DP2/CRTH2 binding assay ([3H]PGD2 radioligand); details: membranes of HEK293 cells expressing recombinant human DP2, 1 nM [3H]PGD2; read-out: hDP2
T1 construct: expressed in transfected cells
T1 sequence (Q9Y5Y4 1-395): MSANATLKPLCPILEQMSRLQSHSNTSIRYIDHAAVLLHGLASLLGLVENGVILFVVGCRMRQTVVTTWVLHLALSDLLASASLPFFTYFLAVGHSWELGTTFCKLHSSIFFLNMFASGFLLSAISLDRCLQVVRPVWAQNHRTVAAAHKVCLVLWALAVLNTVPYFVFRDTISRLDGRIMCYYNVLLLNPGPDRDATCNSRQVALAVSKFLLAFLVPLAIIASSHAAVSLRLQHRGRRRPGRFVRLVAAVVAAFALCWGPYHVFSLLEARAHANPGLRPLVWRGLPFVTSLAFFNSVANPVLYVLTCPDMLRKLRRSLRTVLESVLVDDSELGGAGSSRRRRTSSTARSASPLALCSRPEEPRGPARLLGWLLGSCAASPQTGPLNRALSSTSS
Procedure, shortened: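 HEK293 membranes with stable recombinant human DP2, incubated with 1 nM [3H]PGD2 and compound 60 min at room temperature in pH 7.4 HEPES/MnCl2/EDTA buffer, with or without 0.2% human serum albumin.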

[2] = molecular target: T2, human DP1 receptor (Homo sapiens, UniProt Q13258); test: DP1 binding assay ([3H]BWA868C radioligand); details: human platelet membranes, 2 nM [3H]BWA868C; read-out: hDP1
T2 construct: tissue Biological Specialty Corporation; host or cells: human platelets, membrane preparation
T2 sequence (Q13258 1-359): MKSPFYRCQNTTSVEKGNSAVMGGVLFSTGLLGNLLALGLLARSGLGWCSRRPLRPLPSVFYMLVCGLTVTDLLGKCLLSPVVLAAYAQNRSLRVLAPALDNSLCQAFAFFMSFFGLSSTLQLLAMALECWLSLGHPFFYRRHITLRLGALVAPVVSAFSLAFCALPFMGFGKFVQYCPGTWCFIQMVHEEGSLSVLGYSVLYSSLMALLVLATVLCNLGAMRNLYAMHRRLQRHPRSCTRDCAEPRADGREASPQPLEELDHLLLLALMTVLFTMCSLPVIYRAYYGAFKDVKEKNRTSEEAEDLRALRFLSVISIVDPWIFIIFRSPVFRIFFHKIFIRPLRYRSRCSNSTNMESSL
Method: The ability of a compound to bind to the human DP1 receptor was evaluated via a radioligand membrane binding assay using the DP1 selective synthetic ligand [^3H]BWA868C. Packed human platelets (Biological Specialty Corporation), were resuspended in 6 volumes of Hepes/HBSS buffer (10 mM Hepes, 1 mM DTT in Hanks Balanced Salt Solution (HBSS), lysed and centrifuged at 75,000×g to pellet the membranes. Membranes were resuspended in Hepes/HBSS buffer to approximately 12 mg protein/ml. Membranes (20 μg protein/well) are incubated in 96-well plates with 2 nM [^3H]BWA868C and test compound in Assay Buffer (50 mM Hepes, 10 mM MnCl2, 1 mM EDTA, plus or minus 0.2% human serum albumin, pH 7.4) for 60 minutes at room temperature. The reactions are terminated by rapid filtration through Whatman GF/C glass fibre filter plates. The filter plates were pre-soaked in 0.33% polethylenimine for 30 minutes at room temperature then washed in Wash Buffer (50 mM Hepes, 0.5 M NaCl pH 7.4) prior to harvesting. After harvesting, the filter plates are washed 3 times with 1 ml cold Wash Buffer then dried. Scintillant is then added to the plates and the radioactivity retained on the filters is determined on a Packard TopCount (Perkin Elmer). Specific binding is determined as total radioactive binding minus non-specific binding in the presence of 10 μM BW A868C. IC50s were determined using GraphPad prism analysis of drug titration curves.

| Structure (SMILES) | IC50 [1] | IC50 [2] |
| --- | --- | --- |
| CC(C)(C)C(=O)Nc1ccc(Oc2cc(CC(=O)O)cc(C(F)(F)F)c2)c(CSCC(F)(F)F)c1 [Compound 32, {3-[4-(2,2-Dimethyl-propionylamino)-2-(2,2,2-trifluoro-ethylsulfanylmethyl)-phenoxy]-5-trifluoromethyl-phenyl}-acetic acid] | < 0.3 µM | > 1 µM |
| COc1ccc(CC(=O)O)cc1Oc1ccc(NC(=O)C(C)(C)C)cc1CSCC(F)(F)F [Compound 2, {3-[4-(2,2-dimethyl-propionylamino)-2-(2,2,2-trifluoro-ethylsulfanylmethyl)-phenoxy]-4-methoxy-phenyl}-acetic acid] | < 0.3 µM | > 1 µM |
| CC(C)(C)SCc1cc(NC(=O)C(C)(C)C)ccc1Oc1cc(CC(=O)O)ccc1Cl [Compound 59, {3-[2-tert-Butylsulfanylmethyl-4-(2,2-dimethyl-propionylamino)-phenoxy]-4-chloro-phenyl}-acetic acid] | < 0.3 µM | < 0.3 µM |
| COc1ccc(CC(=O)O)cc1Oc1ccc(NC(=O)c2ccccc2F)cc1CSC(C)(C)C [Compound 64, {3-[2-tert-Butylsulfanylmethyl-4-(2-fluoro-benzoylamino)-phenoxy]-4-methoxy-phenyl}-acetic acid] | < 0.3 µM | < 0.3 µM |
